From patent publication US20210093607A1, “ANTITUMOR NANO-DRUG” (SICHUAN YUANNING BIOLOGICAL TECHNOLOGY CO., LTD., priority 2018, published 2021) come the findings set out here.

Where a name gives a salt, the structure may show the parent alone.

Data set [1] deals with SW480 cells. As to the kind of experiment: Determination of superoxide anion in mitochondria. In kind it is cell-based, human. Particulars: SW480, 1 mM, incubation 4 h, laser confocal. The procedure: Determination of superoxide anion (O2^+) in mitochondria: SW480 cells in logarithmic growth active phase were prepared into cell suspension and added into 6-well plate (5×10^5 cells/well). […] After incubation for 4 h, the old culture medium was removed and 1 mL of fluorescent amine dye (50 μM) was added. After incubation for 2 h, cysteine was added to make the final concentration to be 200 μM. After incubation for 0.5 h, culture medium was removed and cells were washed with Krebs buffer for 3 times, then mitochondrial red dye was added to proceed mitochondrial staining for 30 min, and cells were washed with 37°C. medium for 3 times. Finally, the emission of fluorescent amine at 440-480 nm was detected by laser confocal to quantify […], and the emission of mitochondrial red dye at 590-650 nm was detected to locate mitochondria in cells.
Determination of superoxide anion (O2^+) in mitochondria: SW480 cells in logarithmic growth active phase were prepared into cell suspension and added into 6-well plate (5×10^5 cells/well). […] Finally, the emission of fluorescent amine at 440-480 nm was detected by laser confocal to quantify O2^+, and the emission of mitochondrial red dye at 590-650 nm was detected to locate mitochondria in cells.

The test system of data set [2] is SW480 cells. In words: Determination of mitochondrial membrane potential (JC-1). The following applies: SW480, 1 mM, incubation 24 h, JC-1, flow cytometry. In kind it is cell-based, human. Here is the method:
Determination of mitochondrial membrane potential: SW480 cells in logarithmic growth active phase were prepared into cell suspension and added into 6-well plate (5×10^5 cells/well). […] After incubation for 24 h, the old culture medium was removed, and the cells of each group were collected and centrifuged to obtain pure cells. 1 mL working solution of mitochondrial membrane potential detection kit (JC-1) was added to the collected cells, and then they were mixed thoroughly and incubated for 20 min. Then the mixture was centrifuged at 4°C. to remove working solution, and the cells were washed twice with JC-1 staining buffer (1×) on ice. Finally, 500 μL staining buffer was added to disperse the cells to obtain a cell suspension, and the change of mitochondrial membrane potential was detected by flow cytometry.
Determination of mitochondrial membrane potential: SW480 cells in logarithmic growth active phase were prepared into cell suspension and added into 6-well plate (5×10^5 cells/well). After incubation for 24 h, cells were treated with 1 mM hydroxyurea, 1 mM cLAVs and 1 mM nano-drug XI, respectively, and ntreated cells were set as blank control group. […] Finally, 500 μL staining buffer was added to disperse the cells to obtain a cell suspension, and the change of mitochondrial membrane potential was detected by flow cytometry.
(In general: A flow cytometer gives signals particle by particle.)

The subject of data set [3] is SW480 cells. In words: Determination of cytochrome C release (western blot). In kind it is cell-based, human. Particulars: SW480, 1 mM, incubation 24 h. Here is the method: Determination of cytochrome C release: SW480 cells in logarithmic growth active phase were prepared into cell suspension and added into 6-well plate (5×10^5 cells/well). […] After incubation for 24 h, the old culture medium was removed and cells were collected. The collected cells were centrifuged (1200 rpm/min) for 5 min at 4°C., and the supernatant was removed. The cells were washed with cold PBS twice, and die supernatant was sucked up as much as possible every lime. 100 μL of cell lysate containing 1 mM phenylmethylsulfonyl fluoride (PMSF, protease inhibitor) was added to the collected cells, which were placed on ice for 30 min and vortex once every 5 min. Then the mixture was centrifuged at 12000 rpm at 4°C. for 60 min, and the supernatant was quickly collected in another clean centrifuge tube, 20 μL supernatant was taken to analyze the content of cytochrome C in cytoplasm by western blot.
Determination of cytochrome C release: SW480 cells in logarithmic growth active phase were prepared into cell suspension and added into 6-well plate (5×10^5 cells/well). After incubation for 24 h, cells were treated with […], 1 mM cLAVs and 1 mM nano-drug XI, respectively, and untreated cells were set as blank control group. After incubation for 24 h, the old culture medium was removed and cells were collected. […]
For orientation: In western blotting, separated proteins are transferred to a membrane and probed.

A further data set relates to Caspase-3. In words: Determination of Caspase-3 activity. In kind it is cell-based, human. Particulars: SW480, 1 mM, incubation 24 h, relative to blank control. The procedure: Determination of Caspase-3 activity: SW480 cells in logarithmic growth active phase were prepared into cell suspension and added into 6-well plate (4×10^5 cells/well). […] After incubation for 24 h, the old culture medium was removed and cells were collected and then centrifuged for 5 min (1200 rpm/min) at 4°C. The cells were washed with cold PBS twice, and the supernatant was sucked up as much as possible every time. 100 μL of cell lysate containing 1 mM phenylmethylsulfonyl fluoride (PMSF, protease inhibitor) was added to the collected cells, which were placed on ice for 30 min and vortex once every 5 min. […] 20 μL supernatant was taken for detection with Caspase-3 activity detection kit, and the absorbance value at A405 nm or A400 was measured by microplate reader. According to the absorbance ratio of material group cells to blank control group cells, the relative Caspase-3 activity degree was calculated.
Determination of Caspase-3 activity: SW480 cells in logarithmic growth active phase were prepared into cell suspension and added into 6-well plate (5×10^5 cells/well). […] 20 μL supernatant was taken for detection with Caspase-3 activity detection kit, and the absorbance value at A405 nm or A400 nm was measured by microplate reader. According to the absorbance ratio of material group cells to blank control group cells, the relative Caspase-3 activity degree was calculated.

In data set [4] the test system is Subcutaneous SW480 xenograft model. As to the kind of experiment: In vivo antitumor assessment, subcutaneous SW480 xenograft. More on the design: species or system BALB/c nude mice. Particulars: SW480 xenograft nude mice; LA/cLAVs 10 mg/kg, Hydrea 6 mg/kg; once every 3 days, 8 times. From the text:
Subcutaneous SW480 xenograft model was established in BALB/c nude mice (about 20 g each) of 4 weeks old.

For data set [5], the system named is Human gingival fibroblasts (HGF). In kind it is cell-based. Particulars: MTT, 48 h.
Method: Human gingival fibroblasts (HGF) in logarithmic growth active phase were selected and inoculated in 96-well plates. […] Different concentration gradients were set for each group, and 5 parallel samples were set for each concentration Untreated cells were set as blank control group. After incubation for 48 h, the old culture medium was removed, and 100 μL fresh medium containing 10% (v/v) MTT was added to each well. After incubation for another 2 h, the culture media was removed and 150 μL dimethyl sulfoxide/well was added. After shaking for 2 min, the absorbance of the solution was measured at 490 nm by using a microplate reader Varioscan Flash and cell viability was calculated.
Untreated cells were set as blank control group. After 48 h of culture, the old culture medium was removed, and 100 μL of culture medium containing 10% (v/v) MTT was added to each well. After incubation for 2 h, 150 μL DMSO was added to each well, and the absorbance at 490 nm was measured with a microplate reader for 2 min, and the cell survival rate was calculated.

As for `NC(=O)NO` [hydroxyurea], the “relative superoxide anion level in mitochondria” value in the data set with SW480 cells [1] is “can all induce mitochondria to produce O2^+”. The “mitochondrial membrane potential loss” value with SW480 cells [2] is on record as “can all induce the decrease of mitochondrial membrane potential”. The “cytochrome C release into cytoplasm” value in the data set on SW480 cells [3] is listed as “promote the release of cytochrome C from the mitochondria to the cytoplasm”. In addition, the “relative Caspase-3 activity” value in the data set on Caspase-3 was “can stimulate the relative activity of Caspase-3”. Moreover, the “tumor inhibition effect (tumor volume)” value in data set [4] is “good tumor inhibition effect”.

Regarding `O=C(O)CCCC[C@@H]1CCSS1` [LA, (R)-(+)-lipoic acid], in the data set on SW480 cells [1], the “relative superoxide anion level in mitochondria” value is listed as “can induce mitochondria to produce O2^+”. In addition, the “mitochondrial membrane potential loss” value in the data set with SW480 cells [2] is on record as “can induce the decrease of mitochondrial membrane potential”. Besides, the “relative Caspase-3 activity” value in the data set on Caspase-3 is recorded as “can stimute the relative activity of Caspase-3”.

Regarding `COc1cccc2c1C(=O)c1c(O)c3c(c(O)c1C2=O)C[C@@](O)(C(=O)CO)C[C@@H]3O[C@H]1C[C@H](N)[C@H](O)[C@H](C)O1` [DOX.HCl, doxorubicin hydrochloride], in data set [5], the “toxicity to normal cells (cell viability)” value is reported as “can kill normal cells at very low doses”.

Regarding `Nc1ccn([C@@H]2O[C@H](CO)[C@@H](O)C2(F)F)c(=O)n1` [Gem.HCl, gemcitabine hydrochloride], the “toxicity to normal cells (cell viability)” value in data set [5] is reported as “can kill normal cells at very low doses”.
